Measured values from patent US9834558B2, “Substituted bridged urea analogs as sirtuin modulators” (GLAXOSMITHKLINE LLC, priority 2013, dated 2017).
Read-outs that look alike come from different tables or passages of the source.

Target: T1, SIRT1 (Homo sapiens, UniProt Q96EB6)
T1 sequence (Q96EB6 1-747): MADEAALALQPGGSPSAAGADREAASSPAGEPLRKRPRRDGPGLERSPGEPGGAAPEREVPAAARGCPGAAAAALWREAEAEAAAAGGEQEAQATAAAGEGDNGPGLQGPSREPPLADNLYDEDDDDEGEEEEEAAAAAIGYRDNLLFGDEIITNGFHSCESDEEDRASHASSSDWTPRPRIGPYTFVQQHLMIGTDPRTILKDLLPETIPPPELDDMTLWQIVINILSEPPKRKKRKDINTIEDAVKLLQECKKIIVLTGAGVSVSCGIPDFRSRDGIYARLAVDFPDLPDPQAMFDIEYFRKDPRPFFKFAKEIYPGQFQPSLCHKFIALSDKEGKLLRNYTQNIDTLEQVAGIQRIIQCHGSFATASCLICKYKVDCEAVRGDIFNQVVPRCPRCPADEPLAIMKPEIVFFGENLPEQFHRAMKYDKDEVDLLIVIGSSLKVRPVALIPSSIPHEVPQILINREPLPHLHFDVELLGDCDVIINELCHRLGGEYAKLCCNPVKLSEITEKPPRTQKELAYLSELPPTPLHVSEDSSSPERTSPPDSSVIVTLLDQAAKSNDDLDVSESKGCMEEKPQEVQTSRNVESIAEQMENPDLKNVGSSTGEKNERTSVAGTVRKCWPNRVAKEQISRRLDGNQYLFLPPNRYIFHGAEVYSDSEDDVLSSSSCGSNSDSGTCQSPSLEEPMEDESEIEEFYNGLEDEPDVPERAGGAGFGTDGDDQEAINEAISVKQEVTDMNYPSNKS
Assay: Trp mass spectrometry assay of SIRT1 activation
Type: biochemical
Conditions: for TRP Activity (EC1.5): EC1.5 = concentration that results in 150% activation of SIRT1
Excerpt: Mass spectrometry based assays were used to identify modulators of SIRT1 activity. […] The peptide was labeled with the fluorophore STMR (excitation 540 nm/emission 580 nm) at the C-terminus. The sequence of the peptide substrate was based on p53 with several modifications. In addition, the methionine residue naturally present in the sequence was replaced with the norleucine because the methionine may be susceptible to oxidation during synthesis and purification. The Trp based assay utilized a peptide having an amino acid residues as follows: Ac-R-H-K-K(Ac)-W-NH2 (SEQ ID NO: 2).
The Trp mass spectrometry assay was conducted as follows. 0.5 μM peptide substrate and 120 μM βNAD^+ were incubated with 10 nM SIRT1 for 25 minutes at 25° C. in a reaction buffer (50 mM HEPES pH 7.5, […], 1 mM DTT, 0.05% BSA). The SIRT1 protein was obtained by cloning the SirT1 gene into a T7-promoter containing vector, which was then expressed in BL21(DE3) bacterial cells and purified as described in further detail below. Test compound was added at varying concentrations to this reaction mixture and the resulting reactions were monitored. After the 25 minute incubation with SIRT1, 10 μL of 10% formic acid was added to stop the reaction. The resulting reactions were sealed and frozen for later mass spec analysis. The relative SIRT1 activity was then determined by measuring the amount of O-acetyl-ADP-ribose (OAADPR) formed (or, alternatively, the amount of deacetylated Trp peptide generated) by the NAD-dependent sirtuin deacetylation reaction in the presence of varying concentrations of the test compound versus control reactions lacking the test compound. The degree to which the test agent activated deacetylation by SIRT1 was expressed as EC1.5 (i.e., the concentration of compound required to increase SIRT1 activity by 50% over the control lacking test compound), and Percent Maximum Activation (i.e., the maximum activity relative to control (100%) obtained for the test compound).
This time point was the same as that used for test compounds and, within the linear range, the endpoint represents a change in velocity.
For the above assay, SIRT1 protein was expressed and purified as follows. The SirT1 gene was cloned into a T7-promoter containing vector and transformed into BL21(DE3). The protein was expressed by induction with 1 mM IPTG as an N-terminal His-tag fusion protein at 18° C. overnight and harvested at 30,000×g. Cells were lysed with lysozyme in lysis buffer (50 mM Tris-HCl, 2 mM Tris[2-carboxyethyl]phosphine (TCEP), 10 μM ZnCl2, 200 mM NaCl) and further treated with sonication for 10 min for complete lysis. The protein was purified over a Ni-NTA column (Amersham) and fractions containing pure protein were pooled, concentrated and run over a sizing column (Sephadex S200 26/60 global). The peak containing soluble protein was collected and run on an Ion-exchange column (MonoQ). Gradient elution (200 mM-500 mM NaCl) yielded pure protein. This protein was concentrated and dialyzed against dialysis buffer (20 mM Tris-HCl, 2 mM TCEP) overnight. The protein was aliquoted and frozen at −80° C. until further use.
“NT” means not tested; “ND” means not determinable.

[1] = concentration giving 150% activation of SIRT1, Trp peptide substrate
[2] = Trp mass spectrometry assay, concentration of test compound giving 150% activation of SIRT1
[3] = Trp mass spectrometry assay, EC1.5 = concentration of test compound that results in 150% activation of SIRT1
[4] = Trp peptide assay, maximum activity relative to control (100%), read-out: TRP MAX RESP (percent maximum fold activation)

With `O=C(Nc1ccc(F)cn1)N1c2nc(N3CCC[C@H](C(F)(F)F)C3)ccc2N2CCC[C@H]1C2` [drawing 1208, (9S)-N-(5-fluoropyridin-2-yl)-5-[(3S)-3-(trifluoromethyl)piperidin-1-yl]-1,6,8-triazatricyclo[7.3.1.0 {2,7}]trideca-2(7),3,5-triene-8-carboxamide] the “TRP Activity (EC1.5)” value (Trp peptide assay) was “B (B (EC1.5 1-25 μM))” and the “TRP MAX RESP (percent maximum fold activation)” value (Trp peptide assay, maximum activity relative to control (100%)) was “A (A (Fold activation ≧150%))”.

In the case of `O=C(Nc1ccncn1)N1c2nc(-c3cccc(Cl)c3)ccc2N2C[C@@H](O)[C@H]1C2` [Example 684], the “Tryp AVG EC1.5 (μM)” value [1] is reported as “B (B (EC1.5 1-25 μM))”.

`CS(=O)(=O)c1cncc(-c2ccc3c(n2)N(C(=O)Nc2cnccn2)[C@H]2CCCN3C2)c1` [Example 378] was tested, and the “Tryp AVG EC1.5 (μM)” value [2] was “A (A (EC1.5<1 μM))”.

`CC(C)(C)OC(=O)N1CCC(c2cccc(NC(=O)N3c4nc(-c5cccc(C(F)(F)F)c5)ccc4N4CC[C@H]3C4)c2)C1` (some centres unmarked) [Example 592] was tested, and the “Tryp AVG EC1.5 (μM)” value [3] was “A (A (EC1.5<1 μM))”.

`Cc1cc(-c2ccc3c(n2)N(C(=O)Nc2ccnnc2)[C@H]2CCN3C2)ccn1` [(9S)-5-(2-methylpyridin-4-yl)-N-(pyridazin-4-yl)-1,6,8-triazatricyclo[7.2.1.0^{2,7}]dodeca-2,4,6-triene-8-carboxamide] was tested, and the “TRP Activity (EC1.5)” value (Trp peptide assay) was “B (B (EC1.5 1-25 μM))” and the Emax [4] was over 150%.

In the case of `COc1ccc(-c2ccc3c(n2)N(C(=O)Nc2ccccn2)[C@H]2CCN3C2)cn1` [Example 342], the “Tryp AVG EC1.5 (μM)” value [2] is reported as “B (B (EC1.5 1-25 μM))”.

In the case of `Cc1nc(NC(=O)N2c3nc(-c4cncc(F)c4)ccc3N3CCC[C@H]2C3)sc1C` [Example 471], the “Tryp AVG EC1.5 (μM)” value [3] is reported as “B (B (EC1.5 1-25 μM))”.

With `O=C(Nc1ccccn1)N1c2nc(-c3cncc(Cl)c3)ccc2N2CCC1CC2` [Example 551] the “Tryp AVG EC1.5 (μM)” value [3] was “B (B (EC1.5 1-25 μM))”.

With `NCc1cccc(NC(=O)N2c3nc(-c4cccc(C(F)(F)F)c4)ccc3N3CCC[C@H]2C3)c1` [Example 757] the “Tryp AVG EC1.5 (μM)” value [1] was “A (A (EC1.5<1 μM))”.

With `COc1cncc(NC(=O)N2c3nc(-c4ccnc(C)c4)ccc3N3CC[C@H]2C3)n1` [Example 499] the “Tryp AVG EC1.5 (μM)” value [3] was “A (A (EC1.5<1 μM))”.

`C#Cc1ccc(NC(=O)N2c3nc(-c4ccc(C5(C(F)(F)F)N=N5)cc4)ccc3N3CC[C@H]2C3)nc1` [Example 807] was tested, and the “Tryp AVG EC1.5 (μM)” value [1] was “C (C (EC1.5>25 μM))”.

In the case of `O=C(Nc1cnccn1)N1c2nc(-c3ccc(CO)nc3)ccc2N2CC[C@H]1C2` [(9S)-5-[6-(hydroxymethyl)pyridin-3-yl]-N-(pyrazin-2-yl)-1,6,8-triazatricyclo[7.2.1.0 {2,7}]dodeca-2(7),3,5-triene-8-carboxamide], the “TRP Activity (EC1.5)” value (Trp peptide assay) is reported as “B (B (EC1.5 1-25 μM))” and the Emax [4] is reported as over 150%.

For `CC(C)(C)OC(=O)N1CCCc2ccc(NC(=O)N3c4nc(-c5cccc(C(F)(F)F)c5)ccc4N4CC[C@H]3C4)cc21` [Example 610], the “Tryp AVG EC1.5 (μM)” value [3] was “B (B (EC1.5 1-25 μM))”.

For `CC1(C)CN(c2ccc3c(n2)N(C(=O)Nc2cnccn2)[C@H]2CCN3C2)CCO1` [(9S)-5-(2,2-dimethylmorpholin-4-yl)-N-(pyrazin-2-yl)-1,6,8-triazatricyclo[7.2.1.0 {2,7}]dodeca-2(7),3,5-triene-8-carboxamide], the “TRP Activity (EC1.5)” value (Trp peptide assay) was “A (A (EC1.5<1 μM))” and the Emax [4] was over 150%.

`O=C(Nc1cccc2nccnc12)N1c2nc(-c3cccc(C(F)(F)F)c3)ccc2N2CC[C@H]1C2` [Example 83] was tested, and the “Tryp AVG EC1.5 (μM)” value (Trp peptide substrate, concentration giving 150% activation of SIRT1) was “A (A (EC1.5<1 μM))”.

`O=C(Nc1cc(OC[C@H](O)CO)ccn1)N1c2nc(-c3cccc(C(F)(F)F)c3)ccc2N2CC[C@H]1C2` [(9S)-N-{4-[(2R)-2,3-dihydroxypropoxy]pyridin-2-yl}-5-[3-(trifluoromethyl)phenyl]-1,6,8-triazatricyclo[7.2.1.0 {2,7}]dodeca-2(7),3,5-triene-8-carboxamide] was tested, and the “TRP Activity (EC1.5)” value (Trp peptide assay) was “A (A (EC1.5<1 μM))” and the Emax [4] was over 150%.

In the case of `Cc1cc(-c2ccc3c(n2)N(C(=O)Nc2cnccn2)[C@H]2CCN3C2)cc(C)n1` [(9S)-5-(2,6-dimethylpyridin-4-yl)-N-(pyrazin-2-yl)-1,6,8-triazatricyclo[7.2.1.0^{2,7}]dodeca-2,4,6-triene-8-carboxamide], the “TRP Activity (EC1.5)” value (Trp peptide assay) is reported as “A (A (EC1.5<1 μM))” and the Emax [4] is reported as over 150%.

For `Cc1cc(-c2ccc3c(n2)N(C(=O)Nc2ccncn2)[C@H]2CCCN3C2)ccn1` [(9S)-5-(2-methylpyridin-4-yl)-N-(pyrimidin-4-yl)-1,6,8-triazatricyclo[7.3.1.0 {2,7}]trideca-2(7),3,5-triene-8-carboxamide], the “TRP Activity (EC1.5)” value (Trp peptide assay) was “A (A (EC1.5<1 μM))” and the Emax [4] was over 150%.

With `O=C(Nc1cnccn1)N1c2nc(-c3ccnc(CO)c3)ccc2N2CC[C@H]1C2` [(9S)-5-[2-(hydroxymethyl)pyridin-4-yl]-N-(pyrazin-2-yl)-1,6,8-triazatricyclo[7.2.1.0 {2,7}]dodeca-2(7),3,5-triene-8-carboxamide] the “TRP Activity (EC1.5)” value (Trp peptide assay) was “B (B (EC1.5 1-25 μM))” and the Emax [4] was over 150%.

`Cc1cc(NC(=O)N2c3nc(-c4ccnc(C)c4)ccc3N3CC[C@H]2C3)ccn1` [(9S)-N,5-bis(2-methylpyridin-4-yl)-1,6,8-triazatricyclo[7.2.1.0 {2,7}]dodeca-2(7),3,5-triene-8-carboxamide] was tested, and the “TRP Activity (EC1.5)” value (Trp peptide assay) was “B (B (EC1.5 1-25 μM))” and the Emax [4] was over 150%.

For `O=C(Nc1ccccn1)N1c2nc(-c3ccc4nonc4c3)ccc2N2CC[C@H]1C2` [Example 372], the “Tryp AVG EC1.5 (μM)” value [2] was “B (B (EC1.5 1-25 μM))”.

`Cc1nc(NC(=O)N2c3nc(-c4cccc(Cl)c4)ccc3N3C[C@@H](O)[C@H]2C3)sc1C` [Example 688] was tested, and the “Tryp AVG EC1.5 (μM)” value [1] was “B (B (EC1.5 1-25 μM))”.

In the case of `NCCCCCC(=O)NCc1cn(-c2cccc(NC(=O)N3c4nc(-c5cccc(C(F)(F)F)c5)ccc4N4CC[C@H]3C4)c2)nn1` [Example 639], the “Tryp AVG EC1.5 (μM)” value [1] is reported as “A (A (EC1.5<1 μM))”.

With `O=C(Nc1cccc(-c2cccnc2)c1)N1c2nc(-c3cccc(C(F)(F)F)c3)ccc2N2CC[C@H]1C2` [Example 660] the “Tryp AVG EC1.5 (μM)” value [1] was “A (A (EC1.5<1 μM))”.

With `O=C(Nc1cnccn1)N1c2nc(-c3cncc(C(F)(F)F)c3)ccc2N2CCC[C@H]1C2` [Example 452] the “Tryp AVG EC1.5 (μM)” value [3] was “A (A (EC1.5<1 μM))”.

With `Cn1nccc1-c1ccc2c(n1)N(C(=O)Nc1cnccn1)[C@H]1CCN2C1` [Example 414] the “Tryp AVG EC1.5 (μM)” value [2] was “B (B (EC1.5 1-25 μM))”.

In the case of `Cc1c(-c2ccc3c(n2)C(C(=O)Nc2cnccn2)[C@H]2CCN3C2)cnn1C` (some centres unmarked) [Example 532], the “Tryp AVG EC1.5 (μM)” value [3] is reported as “B (B (EC1.5 1-25 μM))” and the Emax (Trp mass spectrometry assay, percent maximum fold activation of SIRT1, read-out: Tryp % Fold Act) is reported as over 150%.

With `COc1cc(NC(=O)N2c3nc(-c4cncc(Cl)c4)ccc3N3CCC2CC3)nc(OC)n1` [Example 553] the “Tryp AVG EC1.5 (μM)” value [3] was “B (B (EC1.5 1-25 μM))”.
